# Assays:
# [1] = tested on: primary cultured hepatocytes; conditions: 10 mM PTU, 1 hour and 3 hours after adding
# Procedure: Rat hepatocytes, which were isolated by collagenase prefusion, are placed into a 24-well plate coated with collagen to have 10^5 cells/well and cultured for 4 hours. After removing the cells not fixed to the well, 10 mM of PTU was added to the cells and each of the 3 cultured media prior to adding the PTU, of 1 hour after adding the PTU, and of 3 hours after adding PTU, was sampled. After 3 hours of culturing, 0.5% of Triton-X100 was added to destroy the cells and a suspended solution was obtained. OCT, ALT and AST levels in each of the sampled cultured medium and the suspended solution after cell destruction were measured. […] Based upon an activity of the suspended solution as 100%, leakage rates of OCT, AST and ALT were calculated in each cultured medium obtained by sampling.
# [2] = Rat thyrotoxicosis model (T3 administration); format: in vivo
# Procedure: Each of blood OCT, AST and ALT levels was measured before and after the administration.
# [3] = liver homogenate after 10 days T3, vs control group
Structure (SMILES),"levels of AST, ALT and OCT in cultured medium ([1]; FIG. 1)",OCT leakage rates compared to the ALT leakage rates ([1]; suspended solution after cell destruction = 100%),"ALT content in the liver [2, 3]","AST content in the liver [2, 3]","blood OCT level ([2]; male Wistar rats, T3 0.1 mg/kg/day s.c. for 10 days, ELISA, control group 14.0±1.6) [ng/mL]","blood ALT level ([2]; male Wistar rats, T3 0.1 mg/kg/day s.c. for 10 days, control group 8.2±0.8) [IU/L]","blood AST level ([2]; male Wistar rats, T3 0.1 mg/kg/day s.c. for 10 days, control group 29.0±5.1) [IU/L]","body weight ([2]; male Wistar rats, T3 0.1 mg/kg/day s.c. for 10 days, control group 303±15.9 g) [g]"
"CCCc1cc(=O)[nH]c(=S)[nH]1 [PTU, propylthiouracil]",elevated,higher,,,,,,
N[C@@H](Cc1cc(I)c(Oc2ccc(O)c(I)c2)c(I)c1)C(=O)O [T3],,,elevated significantly,elevated significantly,11.9 ± 2.5,11.2±0.6,40.0±6.51,266 ± 5.8

# Reference: patent US20110189709A1, “METHOD FOR DETECTING HEPATIC INJURY DUE TO ANTITHYROID DRUG” (YAMASA CORPORATION, priority 2010, published 2011)
